Results reported in patent US12522607B2, “Substituted pyrazolo[3,4-d]pyrimidines as wee-1 inhibitors” (WIGEN BIOMEDICINE TECHNOLOGY (SHANGHAI) CO., LTD., priority 2020, dated 2026).

What was measured:
HT29 cells = test: Antiproliferative activity against HT29 cells (Cell Titer-Lumi, ATP content); type: cell-based; conditions: Homo sapiens, HT-29, 72 after compound addition, read-out: HT-29 cells Anti-proliferative activity (IC50 for the inhibition against HT-29 cell growth)
Method in brief: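 Growth inhibition IC50 derived from luminescent ATP content after 72 (units as printed) of compound exposure over a dilution gradient. Seeding density 3000 cells per well; compound added once cells had adhered overnight.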

[1] = Pharmacokinetic evaluation in mice; type: in vivo, male ICR mice; conditions: for AUC(0-t) / clearance / half-life / Vd / Cmax / Tmax: male, ICR, mouse, plasma; for Vd: read-out: Vss; for F: po 10 mg/kg vs iv 2 mg/kg
Experimental: Example 344. Pharmacokinetic Evaluation in Mice
The compounds were administered by intravenous injection at a dose of 2 mg/kg and oral gavage at a dose of 10 mg/kg (0.5% CMC-Na suspension). 15 male ICR mice were selected for each group, and each mouse was subjected to blood collection at 3 discrete time points, with 3 mice at each time point. The time points of sampling were as follows: before administration, and 5 min, 15 min, 30 min, 1 h, 3 h, 5 h, 8 h, 12 h and 24 h after administration. 80 μL of blood was collected from the orbits or hearts of the mice at each time point after administration. All whole blood samples were collected in tubes containing EDTA K2 and centrifuged (1500-1600 rmp/min) at 4° C. for 10 min to isolate plasma, which was then stored in a refrigerator at −90° C. to −60° C. for sample analysis. The compound concentration in the plasma was determined by liquid chromatography-tandem mass spectrometry, and the corresponding pharmacokinetic parameters were obtained according to a plasma concentration-time curve.

Wee-1 kinase = target: T1, Wee-1 kinase (Homo sapiens, UniProt P30291); test: Inhibitory activity against Wee-1 kinase (Lanthra Screen Wee-1 kinase kit, Tracer 178); type: binding; conditions: Wee-1 kinase 5 nM, Tracer 178 50 nM, 1 h room temperature
T1 construct: purchased Invitrogen
T1 sequence (P30291 whole entry): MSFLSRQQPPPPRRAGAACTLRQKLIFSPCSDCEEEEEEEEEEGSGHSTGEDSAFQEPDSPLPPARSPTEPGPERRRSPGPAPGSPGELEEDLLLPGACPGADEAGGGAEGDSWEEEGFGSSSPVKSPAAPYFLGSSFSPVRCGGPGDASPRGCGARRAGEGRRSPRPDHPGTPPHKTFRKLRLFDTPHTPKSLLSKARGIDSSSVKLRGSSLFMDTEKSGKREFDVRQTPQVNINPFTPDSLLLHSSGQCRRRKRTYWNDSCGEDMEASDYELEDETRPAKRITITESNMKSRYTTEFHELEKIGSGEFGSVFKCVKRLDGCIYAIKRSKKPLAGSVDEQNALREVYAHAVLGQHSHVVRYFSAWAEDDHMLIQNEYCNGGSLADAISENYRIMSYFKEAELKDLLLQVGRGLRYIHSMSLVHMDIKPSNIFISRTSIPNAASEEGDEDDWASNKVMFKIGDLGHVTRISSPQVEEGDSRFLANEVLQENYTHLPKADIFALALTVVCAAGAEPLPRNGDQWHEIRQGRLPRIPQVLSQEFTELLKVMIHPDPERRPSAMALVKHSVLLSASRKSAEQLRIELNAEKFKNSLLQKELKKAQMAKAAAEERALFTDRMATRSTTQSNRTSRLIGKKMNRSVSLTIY
Method in brief: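 Compound gradient in DMSO mixed with 5 nM Wee-1, 2 nM Eu-anti-GST antibody and 50 nM Tracer 178 (all final). Read after one hour at room temperature; IC50 calculated against the DMSO solvent control.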

[2] = po, 10 mg/kg, 0.5% CMC-Na suspension

With C=CCn1c(=O)c2cnc(Nc3ccc(N4CCN(C)CC4)cc3)nc2n1-c1cccc(C(C)(C)O)n1 [AZD-1775, reference compound] the IC50 (HT29 cells) was at most 1000 nM, the AUC(0-t) ([1]; iv, 2 mg/kg) was 152 ng·h/mL and the clearance ([1]; iv, 2 mg/kg) was 220 mL/min/kg. The half-life ([1]; iv, 2 mg/kg) was 18 min, the Vd ([1]; iv, 2 mg/kg) was 3.51 L/kg and the AUC(0-t) [1, 2] was 215 ng·h/mL. It also gave a Cmax [1, 2] of 247 ng/mL, a Tmax [1, 2] of 30 min and a half-life [1, 2] of 87 min. The F [1] was 28.3%.

With C=CCn1c(=O)c2cnc(Nc3ccc(N4CCN(C)CC4)cc3)nc2n1-c1ccc(=O)n(C(C)C)n1 [Compound 3] the IC50 (HT29 cells) was at most 1000 nM, the IC50 (Wee-1 kinase) was at most 30 nM and the “oral absorption characteristics (in words)” value ([1]; compared with control drug AZD-1775) was “good oral absorption characteristics”. It also gave an AUC(0-t) ([1]; iv, 2 mg/kg) of 736 ng·h/mL, a clearance ([1]; iv, 2 mg/kg) of 45.3 mL/min/kg and a half-life ([1]; iv, 2 mg/kg) of 43.1 min. For the same molecule, the Vd ([1]; iv, 2 mg/kg) was 1.8 L/kg, the AUC(0-t) [1, 2] was 1210 ng·h/mL and the Cmax [1, 2] was 533 ng/mL. For the same molecule, the Tmax [1, 2] was 15 min, the half-life [1, 2] was 115 min and the F [1] was 32.9%.

CC(C)n1cc(-n2c3nc(Nc4ccc(N5CCN(C)CC5)cc4)ncc3c(=O)n2C(C)C)cc(F)c1=O [Compound 319] showed an IC50 (HT29 cells) of at most 1000 nM and an IC50 (Wee-1 kinase) of at most 30 nM.

Molecule Cc1cc(Nc2ncc3c(=O)n(C(C)C)n(-c4cc(F)c(=O)n(C(C)C)c4)c3n2)ccc1N1CCN(C)CC1 [Compound 320] has an IC50 (HT29 cells) of at most 1000 nM and an IC50 (Wee-1 kinase) of at most 30 nM.

Molecule Cc1cc(Nc2ncc3c(=O)n(C(C)C)n(-c4cc(F)c(=O)n(C(C)C)c4)c3n2)ccc1C1CCN(C)CC1 [Compound 321] has an IC50 (HT29 cells) of at most 1000 nM and an IC50 (Wee-1 kinase) of at most 30 nM.

Work on CC(C)n1cc(-n2c3nc(Nc4ccc5c(c4)CN(C)CC54CC4)ncc3c(=O)n2C(C)C)cc(F)c1=O [Compound 322] yielded an IC50 (HT29 cells) of at most 1000 nM and an IC50 (Wee-1 kinase) of at most 30 nM.

CC(C)n1cc(-n2c3nc(Nc4ccc(N5CCN(C)CC5)cc4)ncc3c(=O)n2C2CC2)cc(F)c1=O [Compound 323] gave an IC50 (HT29 cells) of at most 1000 nM and an IC50 (Wee-1 kinase) of at most 30 nM.

Work on Cc1cc(Nc2ncc3c(=O)n(C4CC4)n(-c4cc(F)c(=O)n(C(C)C)c4)c3n2)ccc1N1CCN(C)CC1 [Compound 324] yielded an IC50 (HT29 cells) of at most 1000 nM and an IC50 (Wee-1 kinase) of at most 30 nM.

For Cc1cc(Nc2ncc3c(=O)n(C4CC4)n(-c4cc(F)c(=O)n(C(C)C)c4)c3n2)ccc1C1CCN(C)CC1 [Compound 325], the IC50 (HT29 cells) was at most 1000 nM and the IC50 (Wee-1 kinase) was at most 30 nM.

CC(C)n1cc(-n2c3nc(Nc4ccc5c(c4)CN(C)CC54CC4)ncc3c(=O)n2C2CC2)cc(F)c1=O [Compound 326] gave an IC50 (HT29 cells) of at most 1000 nM and an IC50 (Wee-1 kinase) of at most 30 nM.

For C=CCn1c(=O)c2cnc(Nc3ccc(N4CCN(C)CC4)c(C)c3)nc2n1-c1ccc(=O)n(C(C)(C)C)c1 [Compound 327], the IC50 (HT29 cells) was at most 1000 nM and the IC50 (Wee-1 kinase) was at most 30 nM.

C=CCn1c(=O)c2cnc(Nc3ccc(C4CCN(C)CC4)c(C)c3)nc2n1-c1ccc(=O)n(C(C)(C)C)c1 [Compound 328] gave an IC50 (HT29 cells) of at most 1000 nM and an IC50 (Wee-1 kinase) of at most 30 nM.

Work on C=CCn1c(=O)c2cnc(Nc3ccc4c(c3)CN(C)CC43CC3)nc2n1-c1ccc(=O)n(C(C)(C)C)c1 [Compound 329] yielded an IC50 (HT29 cells) of at most 1000 nM and an IC50 (Wee-1 kinase) of at most 30 nM.

CCn1c(=O)c2cnc(Nc3ccc(N4CCN(C)CC4)cc3)nc2n1-c1ccc(=O)n(C(C)(C)C)c1 [Compound 330] gave an IC50 (HT29 cells) of at most 1000 nM and an IC50 (Wee-1 kinase) of at most 30 nM.

With CCn1c(=O)c2cnc(Nc3ccc(N4CCN(C)CC4)c(C)c3)nc2n1-c1ccc(=O)n(C(C)(C)C)c1 [Compound 331] the IC50 (HT29 cells) was at most 1000 nM and the IC50 (Wee-1 kinase) was at most 30 nM.

CCn1c(=O)c2cnc(Nc3ccc(C4CCN(C)CC4)c(C)c3)nc2n1-c1ccc(=O)n(C(C)(C)C)c1 [Compound 332] gave an IC50 (HT29 cells) of at most 1000 nM and an IC50 (Wee-1 kinase) of at most 30 nM.

CCn1c(=O)c2cnc(Nc3ccc4c(c3)CN(C)CC43CC3)nc2n1-c1ccc(=O)n(C(C)(C)C)c1 [Compound 333] showed an IC50 (HT29 cells) of at most 1000 nM and an IC50 (Wee-1 kinase) of at most 30 nM.

CC(C)n1c(=O)c2cnc(Nc3ccc(N4CCN(C)CC4)cc3)nc2n1-c1ccc(=O)n(C(C)(C)C)c1 [Compound 334] gave an IC50 (HT29 cells) of at most 1000 nM and an IC50 (Wee-1 kinase) of at most 30 nM.

Molecule Cc1cc(Nc2ncc3c(=O)n(C(C)C)n(-c4ccc(=O)n(C(C)(C)C)c4)c3n2)ccc1N1CCN(C)CC1 [Compound 335] has an IC50 (HT29 cells) of at most 1000 nM and an IC50 (Wee-1 kinase) of at most 30 nM.

With Cc1cc(Nc2ncc3c(=O)n(C(C)C)n(-c4ccc(=O)n(C(C)(C)C)c4)c3n2)ccc1C1CCN(C)CC1 [Compound 336] the IC50 (HT29 cells) was at most 1000 nM and the IC50 (Wee-1 kinase) was at most 30 nM.

Work on CC(C)n1c(=O)c2cnc(Nc3ccc4c(c3)CN(C)CC43CC3)nc2n1-c1ccc(=O)n(C(C)(C)C)c1 [Compound 337] yielded an IC50 (HT29 cells) of at most 1000 nM and an IC50 (Wee-1 kinase) of at most 30 nM.

CN1CCN(c2ccc(Nc3ncc4c(=O)n(C5CC5)n(-c5ccc(=O)n(C(C)(C)C)c5)c4n3)cc2)CC1 [Compound 338] showed an IC50 (HT29 cells) of at most 1000 nM and an IC50 (Wee-1 kinase) of at most 30 nM.

Cc1cc(Nc2ncc3c(=O)n(C4CC4)n(-c4ccc(=O)n(C(C)(C)C)c4)c3n2)ccc1N1CCN(C)CC1 [Compound 339] showed an IC50 (HT29 cells) of at most 1000 nM and an IC50 (Wee-1 kinase) of at most 30 nM.

For Cc1cc(Nc2ncc3c(=O)n(C4CC4)n(-c4ccc(=O)n(C(C)(C)C)c4)c3n2)ccc1C1CCN(C)CC1 [Compound 340], the IC50 (HT29 cells) was at most 1000 nM and the IC50 (Wee-1 kinase) was at most 30 nM.

Molecule CN1Cc2cc(Nc3ncc4c(=O)n(C5CC5)n(-c5ccc(=O)n(C(C)(C)C)c5)c4n3)ccc2C2(CC2)C1 [Compound 341] has an IC50 (HT29 cells) of at most 1000 nM and an IC50 (Wee-1 kinase) of at most 30 nM.
